Laboratory results: US7393825B2, “Microdose therapy” (Strakan International Limited, priority 1997, dated 2008)

Key:
[1] = in vivo; cited from earlier work
[2] = test system: patients with previously diagnosed ED; experiment: Clinical case studies in patients with erectile dysfunction; assay type: in vivo, human; settings: 0.2 mg/h patch
Procedure: Clinical Data: For erectile dysfunction reversal with microdoses of NO General Methods. Measurements were made in a clinical erectile dysfunction (ED) laboratory in patients with previously diagnosed ED. These patients were being evaluated for the purpose of optimization of their intracavernous injection dosing. All men were assessed using the Queen's University Human Sexuality Group Protocol (Kingston, Ontario, Canada).

[3] = test system: L-NAME treated rats; experiment: Mean arterial pressure response to vasoactive infusions in control and L-NAME treated rats; assay type: in vivo, rat; settings: for shift of concentration-mean arterial pressure response curve after NO synthase blockade: L-NAME treated versus control rats
Procedure: The surgical method was based on the technique of Thompson et al (Hypertens. 20:809, 1992). […] The catheters were tunnelled subcutaneously and exteriorized at the back of the neck and sutured in place. Two days after surgery, MAP could be recorded (MacLab DAS, ADInstruments, Milford, Mass.). After connection, an equilibration period of approximately 30 minutes allowed for the determination of the steady state level of MAP before any recording began. Baseline MAP was determined from readings averaged over 5 minutes, taken from each rat at 15 minute intervals for at least 1 hour prior to the start of any experiment.
Rats were randomly assigned treatment with N^ω-nitro-L-arginine methyl ester (L-NAME) for 30 minutes (100 mg/kg, intraperitoneally) or 12 days (100 mg/kg, in drinking water) or tap water. Two days prior to the day of the experiment rats were instrumented with catheters, as described above. Following baseline measurements of MAP, rats were given a infusions of sodium nitroprusside (SNP, 0.5 to 32 ug/kg per minute dissolved in 0.9% sterile saline) with a step-wise increase in concentration every two minutes. Rats were allowed 30 minutes to recover from the SNP administration. Rats were then given infusions of glyceryl trinitrate (GTN, 0.5 to 32 ug/kg per minute dissolved in 0.9% sterile saline) with a step-wise increase in concentration every two minutes.
Throughout all of these pharmacological manipulations, MAP and HR were recorded at a sampling rate of 100 Hz and the data was stored on a disk drive for later analysis.

[4] = Plasma concentration of glyceryl trinitrate after patch or spray delivery; assay type: in vivo, human; settings: 0.2 mg/h patch after 20 to 30 minutes
Procedure: The concentration of glyceryl trinitrate (the typical form of NO donor derived from Nitrospray or Nitropatches) has been reported in the literature for such delivery routes to be in the order of 200 to 400 pg/ml of plasma (Sun et al., J. Clin. Pharmacol. 35:390, 1995). Based on the clinical case studies performed, it was noted that the beneficial effects of a 0.2 mg/h patch are observed after 20 to 30 minutes. This corresponds to a plasma concentration of 100 pg/ml. In respect of the application of the invention to ED therapy a preferred range of NO agent (such as GTN) is a steady state plasma concentration of about 50 to about 200 pg/ml. This range corresponds to the “window” referred to above as illustrated in FIG. 4.

[5] = test system: renal vasculature; experiment: Renal interstitial hydrostatic pressure (RIHP) and mean arterial pressure in anaesthetized rats

O=[N+]([O-])OCC(CO[N+](=O)[O-])O[N+](=O)[O-] [GTN, glyceryl trinitrate]
plasma concentration reported in the literature [1]: 0.2 to 0.4 ng/mL
time to beneficial effects [2]: 20 to 30 min
reversal of NO synthase blockade induced hypertension / excessive vasoconstriction ([3]; L-NAME treated rats, concentrations that do not lower MAP in controls): almost completely reversed
shift of concentration-mean arterial pressure response curve after NO synthase blockade [3]: shifted leftward
plasma concentration corresponding to onset of beneficial effects [4]: 0.1 ng/mL

CC(C)NCC(O)c1ccc(O)c(O)c1 (stereo not shown) [INE, isopropylnorepinephrine]
shift of concentration-mean arterial pressure response curve after NO synthase blockade [3]: identical both before and after nitric oxide synthase blockade

N=C(N)NCCC[C@H](N)C(=O)O [L-Arginine]
renal vasoconstriction as measured by RIHP changes ([5]; L-NAME treated, 150-200 mg/kg per min, FIG. 6): reversed the renal vasoconstriction

COC(=O)[C@@H](N)CCCNC(=N)N[N+](=O)[O-] [L-NAME, N^ω nitro-L-arginine methyl ester]
hypertension following maximal NO synthase blockade ([3]; L-NAME alone): 40 mmHg
change in RIHP ([5]; administration of NO synthase blocker, FIG. 5): sharp decline in RIHP

COc1cc2nc(N3CCN(C(=O)c4ccco4)CC3)nc(N)c2cc1OC [prazosin]
increased sensitivity to nitric oxide donors following treatment ([3]; FIG. 9): does not occur
